Molecular target: T1, Cran1 (Cell cycle-related ATPase and nickase 1) (Saccharolobus islandicus, UniProt F0NG35, E246A)
T1 construct: gene SiRe_0086; full-length, C-terminal His-tag; expressed in Sa. islandicus (ATPase assay) or E. coli BL21(DE3)-RIL; monomer, 55 kDa by gel filtration
Assay: malachite green phosphate release assay
Assay type: biochemical
Conditions: 1 mM ATP, 0.2 uM protein, 5 mM MgCl2, 25 mM Tris-HCl pH 7.4, 100 mM NaCl; 70 C

T1 sequence (F0NG35 entry or part of it E246A): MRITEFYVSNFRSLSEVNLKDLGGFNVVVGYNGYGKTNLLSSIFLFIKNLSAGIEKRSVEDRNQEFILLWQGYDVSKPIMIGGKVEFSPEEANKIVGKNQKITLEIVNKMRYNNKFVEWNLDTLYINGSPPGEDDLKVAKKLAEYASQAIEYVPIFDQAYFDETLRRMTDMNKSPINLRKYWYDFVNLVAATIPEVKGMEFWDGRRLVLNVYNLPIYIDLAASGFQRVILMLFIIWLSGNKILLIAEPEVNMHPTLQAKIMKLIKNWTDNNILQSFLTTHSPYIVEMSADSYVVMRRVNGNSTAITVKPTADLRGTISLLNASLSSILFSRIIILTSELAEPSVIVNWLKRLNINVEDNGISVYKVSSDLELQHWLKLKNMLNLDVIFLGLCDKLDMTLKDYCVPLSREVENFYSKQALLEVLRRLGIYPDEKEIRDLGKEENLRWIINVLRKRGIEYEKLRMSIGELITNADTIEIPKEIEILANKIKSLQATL

`Nc1ncnc2c1ncn2[C@@H]1O[C@H](COP(=O)(O)OP(=O)(O)OP(=O)(O)O)[C@@H](O)[C@H]1O` [ATP] was tested, and the “malachite green phosphate release assay” value was “substitution of either of the two residues with alanine had no effect both in vitro”.
